Experimental findings from patent publication US12209112B2, “Methods of preventing or treating diseases, conditions, or disorders associated with chemotherapy” (The Chinese University of Hong Kong, priority 2022, dated 2025) are described below.

Read-outs that look alike come from different tables or passages of the source.

For series [1], the system named is C57BL/6J male mice. Type of series: in vivo, mouse. As to the method: (§1) Recombinant human GDF15/MIC-1 protein (CHO-derived) was purchased from PeproTech Inc. (Cranbury, USA) and described in Example 1. […] For in vitro studies, solid lyophilized powder of these two drugs were solubilized at the recommended concentrations in sterile water, and separate aliquots were made and frozen until thawing prior to addition to cell cultures. For in vivo studies, all agents were dissolved in […] normal saline according to the required concentrations (doxorubicin, 5 mg/kg; GDF15, 0.5 mg/kg; dexrazoxane, […]), and the final volume of each intraperitoneal injection was 100 μl. The recommended dose ratio of dexrazoxane to doxorubicin was 10 to 1. In the following examples, 5 mg/kg of doxorubicin was used which correspond to 50 mg/kg of dexrazoxane. The FDA recommends that dexrazoxane be injected within 0.5 hour prior to doxorubicin infusion in individuals. This was followed in the same manner when applying to the test animals.
To induce cardiotoxicity in the mouse, four weekly intraperitoneal injections of doxorubicin at 5 mg/kg were administered. After one dose of doxorubicin at 5-6 mg/kg in a mouse, the level of exposure has been estimated to be similar to that of a human individual being given a standard dose of doxorubicin at approximately 60 mg/m^2. Previous studies have shown that mice injected with doxorubicin once a week at 5 mg/kg for four weeks developed cardiotoxicity, as evidenced by decreased ventricular ejection fraction, cardiomyocyte apoptosis, histopathological changes consistent with doxorubicin-induced myocardial damage, and increased mortality rate, compared with the control group.
The hearts of mice were collected after sacrifice and fixed in 4% paraformaldehyde overnight, followed by paraffin embedding. Afterwards the hearts were cut into 4 μm thick slices. Sections were deparaffinized and rehydrated using sequential immersion in 100% alcohol, 95% alcohol and 70% alcohol for 15 minutes each. […]

The subject of series [2] is C57BL/6J male mice. Description: Noninvasive blood pressure in mouse doxorubicin cardiotoxicity model. Type of series: in vivo. Conditions: for Day 28 DBP / Day 28 SBP: after doxorubicin 5 mg/kg intraperitoneal once weekly for four weeks (Dox + groups); for Day 28 DBP / Day 28 SBP / Day 0 DBP / Day 0 SBP: n = 4 per group; for Day 0 DBP / Day 0 SBP: before doxorubicin administration. An excerpt:
Recombinant human GDF15/MIC-1 protein (CHO-derived) was purchased from PeproTech Inc. (Cranbury, USA) and described in Example 1. […] PubChem identifier number 71384) were purchased from Abcam (Cambridge, UK). For in vitro studies, solid lyophilized powder of these two drugs were solubilized at the recommended concentrations in sterile water, and separate aliquots were made and frozen until thawing prior to addition to cell cultures. […] The recommended dose ratio of dexrazoxane to doxorubicin was 10 to 1. In the following examples, 5 mg/kg of doxorubicin was used which correspond to 50 mg/kg of dexrazoxane. The FDA recommends that dexrazoxane be injected within 0.5 hour prior to doxorubicin infusion in individuals. This was followed in the same manner when applying to the test animals. Ten- to twelve-week old C57BL/6J male mice were purchased from the Laboratory Animal Services Centre of CUHK. They were maintained in specific pathogen-free facility of the CUHK Laboratory Animal Services Centre Research Unit at Prince of Wales Hospital with free access to food and water and maintained in a light/night cycle of 12 hours/12 hours. All mice were fed a standard diet. Blood pressure of animals was measured using the noninvasive CODA® High Throughput System (Torrington, USA) in accordance with the manufacturer's instructions. Measurement platform was prewarmed and maintained at 33-35° C. O-cuffs and VPR-cuffs were used as instructed. Blood pressure of each mouse was measured for at least three cycles. Mice were released and returned to their cages immediately after measurement. Blood pressure was measured twice, once at the beginning of the experiment and once before sacrifice. To induce cardiotoxicity in the mouse, four weekly intraperitoneal injections of doxorubicin at 5 mg/kg were administered. After one dose of doxorubicin at 5-6 mg/kg in a mouse, the level of exposure has been estimated to be similar to that of a human individual being given a standard dose of doxorubicin at approximately 60 mg/m^2.

The next series has as its system hESC-CMs. The experiment in a line: Mitochondrial membrane potential (TMRE). The format is cell-based, human. As to the method:
Mitochondrial membrane potential (MMP) as a measure of mitochondrial function and viability was assessed using tetramethylrhodamine ethyl ester (TMRE) (Thermo Fisher Scientific, USA), a cell-permeant cationic fluorescent dye that is readily taken up by viable mitochondria. hESC-CMs seeded at 15,000 cells per well on a 96-well flat-bottom microtiter plate were cultured at 37° C. in a humidified 5% CO2 atmosphere for at least 3 days before MMP measurement. TMRE dye was applied at 50 nM for 20 minutes in B27+/RPMI−1640 media, followed by fluorescence reading at excitation and emission wavelengths of 485 nm and 528 nm, respectively, using the Synergy HTX Multi-Mode microplate reader.

For series [3], the system named is C57BL/6J male mice. The experiment in a line: TUNEL staining of mouse myocardium (cardiomyocyte apoptosis). Type of series: in vivo. Conditions: pretreatment before doxorubicin. As to the method:
as §1
To induce cardiotoxicity in the mouse, four weekly intraperitoneal injections of doxorubicin at 5 mg/kg were administered. After one dose of doxorubicin at 5-6 mg/kg in a mouse, the level of exposure has been estimated to be similar to that of a human individual being given a standard dose of doxorubicin at approximately 60 mg/m^2. […]

For `COc1cccc2c1C(=O)c1c(O)c3c(c(O)c1C2=O)C[C@@](O)(C(=O)CO)C[C@@H]3OC1C[C@H](N)[C@H](O)[C@H](C)O1.Cl` (stereo partly drawn) [Dox, (8S,10S)-10-[(3-Amino-2,3,6-trideoxy-L-lyxohexopyranosyl)oxy]-7,8,9,10-tetrahydro-6,8,11-trihydroxy-8-(hydroxyacetyl)-1-methoxynaphthacene-5,12-dione hydrochloride, reference compound], in the series with C57BL/6J male mice [1] (mouse, in vivo), the “myocardial histopathology (hematoxylin and eosin)” value was “myocardial structural disarray, and microfibrillar disruption and disorganization”. In addition, in the series on C57BL/6J male mice [2], the “Day 28 DBP” value turned out to be 119 ± 7 mmHg, the “Day 28 SBP” value was 146 ± 7 mmHg, the “Day 0 DBP” value was found to be 87 ± 15 mmHg and the “Day 0 SBP” value stood at 116 ± 13 mmHg.
Consider “GDF15: commercially available recombinant human GDF-15 protein (PeproTech 120-28C), CHO cell-derived, SEQ ID NO: 1”, for which, in the series on C57BL/6J male mice [1] (mice, pretreatment before doxorubicin), the “myocardial histopathology (hematoxylin and eosin)” value is on record as “similarly improved”. Besides, in the series with hESC-CMs (300 ng/ml GDF15 pretreatment, hESC-CMs exposed to doxorubicin), the “mitochondrial membrane potential and function (TMRE)” value is on record as “better preserved than at other concentrations”. The “mitochondrial membrane potential compared with dexrazoxane” value in the series with hESC-CMs (hESC-CMs, pretreatment in the presence of Dox) was “performed similarly to dexrazoxane”. The “systolic and diastolic blood pressure” value in the series on C57BL/6J male mice [2] (GDF15 5 mg/kg intraperitoneal before doxorubicin, compared with doxorubicin only) is reported as “significantly lowered”. Further, in the series on C57BL/6J male mice [2], the “Day 28 DBP” value was 88 ± 5 mmHg, the “Day 28 SBP” value came to 121 ± 5 mmHg, the “Day 0 DBP” value came out at 83 ± 17 mmHg and the “Day 0 SBP” value came to 117 ± 12 mmHg. Further, the “cardiomyocyte death by apoptosis (TUNEL staining)” value with C57BL/6J male mice [3] is reported as “reduced extent of cardiomyocyte death by apoptosis”.
